Consider 15 molecules from ChEMBL document CHEMBL3244206, “Quinazolines as inhibitors of dihydrofolate reductase. 4. Classical analogues of folic and isofolic acids” (J Med Chem, 1977).

The first series has as its target T1, Dihydrofolate reductase (Enterococcus faecium, UniProt P00380).
T1 sequence (P00380 whole entry): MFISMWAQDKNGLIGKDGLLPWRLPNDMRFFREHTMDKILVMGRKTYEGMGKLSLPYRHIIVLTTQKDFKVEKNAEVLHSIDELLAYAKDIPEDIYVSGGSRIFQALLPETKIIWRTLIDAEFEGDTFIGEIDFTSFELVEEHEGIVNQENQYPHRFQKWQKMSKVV
Briefly: Inhibition of Streptococcus faecium dihydrofolate reductase using dihydrofolate as substrate. The settings on record: read-out: I50.
As for `CCOC(=O)CC[C@H](NC(=O)c1ccc(CNc2ccc3nc(N)nc(O)c3c2)cc1)C(=O)OCC`, the IC50 amounted to 24000 nM.
Same read-out and setting: the value for `Nc1nc(N)c2c(Cl)c(CNc3ccc(C(=O)N[C@@H](CCC(=O)O)C(=O)O)cc3)ccc2n1` was 0.7 nM; that for `Nc1nc(O)c2cc(NCc3ccc(C(=O)N[C@@H](CCC(=O)O)C(=O)O)cc3)ccc2n1` was 22000 nM; that for `CCOC(=O)CC[C@H](NC(=O)c1ccc(NCc2ccc3nc(N)nc(N)c3c2Cl)cc1)C(=O)OCC` was 1.7 nM.
Still for that read-out and setting: the figure for `Cc1c(NCc2ccc(C(=O)N[C@@H](CCC(=O)O)C(=O)O)cc2)ccc2nc(N)nc(N)c12` is 8.3 nM; for `Cc1c(NCc2ccc(C(=O)N[C@@H](CCC(=O)O)C(=O)O)cc2)ccc2nc(N)nc(O)c12` it is 5900 nM; for `Cc1c(CNc2ccc(C(=O)N[C@@H](CCC(=O)O)C(=O)O)cc2)ccc2nc(N)nc(N)c12` it is 2.2 nM.
Still for that read-out and setting: the value for `CCOC(=O)CC[C@H](NC(=O)c1ccc(CNc2ccc3nc(N)nc(N)c3c2C)cc1)C(=O)OCC` was 3.9 nM.
For `CCOC(=O)CC[C@H](NC(=O)c1ccc(CNc2ccc3nc(N)nc(O)c3c2C)cc1)C(=O)OCC`, the IC50 came out at 115000 nM.
Still for that read-out and setting: the value for `CCOC(=O)CC[C@H](NC(=O)c1ccc(NCc2ccc3nc(N)nc(N)c3c2C)cc1)C(=O)OCC` was 2.4 nM; that for `Cc1c(CNc2ccc(C(=O)N[C@@H](CC(=O)O)C(=O)O)cc2)ccc2ncnc(N)c12` [METHASQUIN] was 2.5 nM.
Same read-out and setting: the figure for `CCOC(=O)CC[C@H](NC(=O)c1ccc(CNc2ccc3nc(N)nc(N)c3c2)cc1)C(=O)OCC` is 32 nM.
Still for that read-out and setting: the figure for `Nc1nc(N)c2cc(NCc3ccc(C(=O)N[C@@H](CCC(=O)O)C(=O)O)cc3)ccc2n1` is 32 nM.

The subject of a further series is Mus musculus. Briefly: Toxicity in mouse allografted with mouse L1210 cells assessed as mortality at 75 mg/kg administered on day 1 measured on day 2. It counts as organism-based. Also noted: dose 75 mg/kg. The settings on record: in vivo.
Take `Nc1nc(N)c2cc(CN(C=O)c3ccc(C(=O)N[C@@H](CCC(=O)O)C(=O)O)cc3)ccc2n1`: the Activity entry is given as “Toxic”.

The next series relates to L1210. Put plainly: Antitumor activity against mouse L1210 cells allografted in mouse assessed as increase in survival at 100 mg/kg administered on day 1 to 3 relative to control. In kind it is functional. To be noted: L1210, 24 h.
As to `Nc1nc(O)c2cc(CN(C=O)c3ccc(C(=O)N[C@@H](CCC(=O)O)C(=O)O)cc3)ccc2n1`, the survival at 100 mg/kg amounted to 19%.

In a further series the test system is L1210. Briefly: Antitumor activity against mouse L1210 cells allografted in mouse assessed as increase in survival at 200 mg/kg administered on day 1 to 3 relative to control. In kind it is functional. To be noted: L1210, 24 h.
For the molecule `Nc1nc(O)c2cc(CN(C=O)c3ccc(C(=O)N[C@@H](CCC(=O)O)C(=O)O)cc3)ccc2n1`, the survival at 200 mg/kg was 15%.

In another series the test system is L1210. Put plainly: Antitumor activity against mouse L1210 cells allografted in mouse assessed as increase in survival at 100 mg/kg administered on day 1 to 5 relative to control. In kind it is functional. To be noted: L1210, 24 h.
Regarding `Nc1nc(O)c2cc(CN(C=O)c3ccc(C(=O)N[C@@H](CCC(=O)O)C(=O)O)cc3)ccc2n1`, the survival at 100 mg/kg was 25%.

The next series concerns L1210. Put plainly: Antitumor activity against mouse L1210 cells allografted in mouse assessed as increase in survival at 75 mg/kg administered on day 1 relative to control. It counts as functional. The settings on record: L1210, 24 h.
Consider `Nc1nc(N)c2cc(CN(C=O)c3ccc(C(=O)N[C@@H](CCC(=O)O)C(=O)O)cc3)ccc2n1`, for which the survival at 75 mg/kg was 0%.
